In patent publication US20030130216A1, “Use of inhibitors of caspase-3 or caspase-activated desoxyribonuclease(cad) for treating cardiac disease” (priority 2000, published 2003):

Tested on: healthy adult ventricular cardiac muscle cells
Assay: Microinjection of activated caspase-3 into isolated ventricular cardiac muscle cells
Assay type: cell-based, rabbit
Conditions: pre-incubation of the muscle cells with inhibitor (100 μmol/l)
Description: The microinjection experiments were carried out on freshly isolated cardiac muscle cells of sham-operated rabbits by means of a “Femto-Jet” microinjection device (Eppendorf, Hamburg, Germany). FITC-conjugated dextran (6 mg/ml), alone or in combination with human recombinant active caspase-3 (4 ng/μl and 20 ng/μl) in 5 mmol/l potassium phosphate buffer (pH value 7.4; 100 mmol/l KCl) was injected into the cytoplasm of the cells in culture medium (Pi=1000 hPa, ti=0.1 sec., Pc=30 hPa) which had been supplemented with 200 μmol/l BDM (butanedione-monoxime, Sigma, Taufkirchen, Germany), 10 μmol/l verapamil and, optionally, 100 μmol/l […]. After incubation for two hours, contraction measurements or phalloidin staining were carried out. Injected cells were selected by means of FITC fluorescence.
In order to be able to study whether the activation of caspase-3 is sufficient for the induction of the worsening of sarcomere organisation, the activated enzyme was injected into the cytoplasm of healthy adult ventricular cardiac muscle cells. Positive cells (approximately 10 to 20%) were identified by means of FITC fluorescence. The morphological features of the cardiac muscle cells after microinjection of activated caspase-3 (4 ng/μl and 20 ng/μl) in comparison with control-injected cells are shown in FIGS. 9(a+b). […]

Substance: DEVD-fmk
- caspase-3-mediated lowering of contraction: blocked
